In US6316437A, “Spirohydantoin compounds and uses thereof” (Merck & Co., Inc., priority 2000, dated 2001):
pKi: −log10 of the molar value. Structures can show the parent of a compound that is named as a salt. Where two headings read alike, the source gives them in different places.

How the values were obtained:
[1] = molecular target: T1, human alpha 1a adrenergic receptor (Homo sapiens, UniProt P35348); experiment: Alpha 1a Adrenergic Receptor Binding (competition binding, [125I]-HEAT); conditions: human alpha 1a membranes, [125I]-HEAT competition, room temperature, one hour
T1 sequence (P35348 1-466): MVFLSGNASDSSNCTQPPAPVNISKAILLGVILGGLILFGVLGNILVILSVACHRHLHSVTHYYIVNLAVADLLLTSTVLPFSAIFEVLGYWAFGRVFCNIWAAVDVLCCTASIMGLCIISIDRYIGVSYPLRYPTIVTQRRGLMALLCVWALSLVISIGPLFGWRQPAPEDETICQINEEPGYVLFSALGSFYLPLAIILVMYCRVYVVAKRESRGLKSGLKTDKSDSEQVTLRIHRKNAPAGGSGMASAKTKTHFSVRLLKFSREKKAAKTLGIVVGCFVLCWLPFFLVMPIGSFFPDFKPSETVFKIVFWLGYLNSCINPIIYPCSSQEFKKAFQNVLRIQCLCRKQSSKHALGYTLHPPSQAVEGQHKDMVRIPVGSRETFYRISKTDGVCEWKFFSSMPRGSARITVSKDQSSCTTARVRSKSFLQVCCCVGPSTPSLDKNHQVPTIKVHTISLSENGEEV
Description: Screening Assay: Alpha 1a Adrenergic Receptor Binding
Membranes prepared from the stably transfected human alpha 1a cell line (ATCC CRL 11140) were used to identify compounds that bind to the human alpha 1a adrenergic receptor. These competition binding reactions (total volume=200 μl) contained 50 mM Tris-HCl pH. 7.4, 5 mM EDTA, 150 mM NaCl, 100 pM [^125 I]-HEAT, membranes prepared from the alpha 1a cell line and increasing amounts of unlabeled ligand. Reactions were incubated at room temperature for one hour with shaking. Reactions were filtered onto Whatman GF/C glass fiber filters with a Inotec 96 well cell harvester. Filters were washed three times with ice cold buffer and bound radioactivity was determined (Ki).

[2] = molecular target: T2, human alpha 1b adrenergic receptor (Homo sapiens, UniProt P35368); experiment: Selective Binding Assay, alpha 1b (competition binding, [125I]-HEAT); conditions: alpha 1a versus alpha 1b, [125I]-HEAT competition binding
T2 construct: host or cells: stably transfected cell line
T2 sequence (P35368 1-520): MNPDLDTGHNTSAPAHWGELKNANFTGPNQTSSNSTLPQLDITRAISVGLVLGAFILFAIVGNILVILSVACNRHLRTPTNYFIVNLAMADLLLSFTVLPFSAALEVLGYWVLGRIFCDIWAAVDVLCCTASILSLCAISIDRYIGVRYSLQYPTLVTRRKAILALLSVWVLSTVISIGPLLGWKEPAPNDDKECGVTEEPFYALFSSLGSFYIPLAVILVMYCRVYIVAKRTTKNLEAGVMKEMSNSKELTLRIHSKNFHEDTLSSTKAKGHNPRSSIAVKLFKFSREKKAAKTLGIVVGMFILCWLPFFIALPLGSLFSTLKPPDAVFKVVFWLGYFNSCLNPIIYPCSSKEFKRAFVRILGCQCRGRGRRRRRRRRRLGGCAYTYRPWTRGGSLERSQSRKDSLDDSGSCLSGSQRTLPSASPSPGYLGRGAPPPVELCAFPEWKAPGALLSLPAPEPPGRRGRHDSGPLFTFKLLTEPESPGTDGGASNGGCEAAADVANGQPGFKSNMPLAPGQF
Description: (§1) Membranes prepared from stably transfected human alpha 1d and alpha 1b cell lines (ATCC CRL 11138 and CRL 11139, respectively) were used to identify compounds that selectively bind to the human alpha 1a adrenergic receptor. These competition binding reactions (total volume=200 μl) contained 50 mM Tris-HCl pH. 7.4, 5 mM EDTA, 150 mM NaCl, 100 pM [^125 I]-HEAT, membranes prepared from cell lines transfected with the respective alpha 1 subtype expression plasmid and increasing amounts of unlabeled ligand. Reactions were incubated at room temperature for one hour with shaking. Reactions were filtered onto Whatman GF/C glass fiber filters with a Inotec 96 well cell harvester. Filters were washed three times with ice cold buffer and bound radioactivity was determined (Ki).

[3] = molecular target: T3, human alpha 1d adrenergic receptor (Homo sapiens, UniProt P25100); experiment: Selective Binding Assay, alpha 1d (competition binding, [125I]-HEAT); conditions: alpha 1a versus alpha 1d, [125I]-HEAT competition binding
T3 construct: host or cells: stably transfected cell line
T3 sequence (P25100 1-572): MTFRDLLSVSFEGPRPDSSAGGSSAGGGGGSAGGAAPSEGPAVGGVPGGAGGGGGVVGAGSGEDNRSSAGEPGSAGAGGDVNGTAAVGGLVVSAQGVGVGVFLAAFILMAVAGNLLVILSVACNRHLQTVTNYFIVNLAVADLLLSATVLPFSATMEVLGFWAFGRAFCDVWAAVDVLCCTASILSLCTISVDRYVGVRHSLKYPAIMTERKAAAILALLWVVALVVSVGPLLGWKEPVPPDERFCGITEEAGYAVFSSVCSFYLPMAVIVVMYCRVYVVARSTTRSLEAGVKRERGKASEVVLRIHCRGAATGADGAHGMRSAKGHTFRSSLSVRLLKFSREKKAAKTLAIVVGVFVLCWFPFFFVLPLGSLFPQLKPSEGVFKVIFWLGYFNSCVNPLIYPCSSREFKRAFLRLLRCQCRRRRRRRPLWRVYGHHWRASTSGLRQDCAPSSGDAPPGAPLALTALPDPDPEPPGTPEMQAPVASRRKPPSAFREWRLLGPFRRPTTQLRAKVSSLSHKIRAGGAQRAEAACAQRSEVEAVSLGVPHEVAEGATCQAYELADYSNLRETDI
Description: as §1

| pKi ([1]; read-out: alpha 1a Ki) | SMILES | pKi ([1]; alpha 1a Ki) | other results |
| --- | --- | --- | --- |
| – | O=C1NC2(CCc3cc(F)ccc32)C(=O)N1CCCN1CCC2(CCc3ccccc32)CC1 (racemic) [Compound 12, (+/ -)-1-{3-{Spiro[indano-1,4'-piperidin]-1-yl}propyl}-5'-fluoro-spiro[imidazoline-4,1'indan]-2,5-dione hydrochloride] | > 8.00 | – |
| – | Cl.O=C1Nc2ccc(Cl)cc2C2(CCN(CCCN3C(=O)NC4(CCc5cc(F)ccc54)C3=O)CC2)O1 (racemic) [Compound 15, (+/ -)-1-{3-{6-Chlorospiro[4H-3,1-benzoxazine-4,4'-piperidin]-2(1H)-on-1'-yl}propyl}-5'-fluoro-spiro[imidazolidine-4,1'indan]-2,5-dione hydrochloride] | > 7.00 | fold more selective in binding to alpha 1a receptors versus binding to the alpha 1b receptors [2]: at least 10 fold; fold more selective in binding to alpha 1a receptors versus binding to the alpha 1d receptors [3]: at least 10 fold |
| > 8.00 | N#Cc1cc(F)ccc1C1CCN(CCCN2C(=O)NC3(CCc4cc(F)c(F)cc43)C2=O)CC1 (racemic) [Compound 18, (+/ -)-1-{3-[4-(4-Fluoro-2-cyanophenyl)piperidin-1-yl]propyl}-5',6'-difluoro-spiro[imidazolidine-4,1'indan]-2,5-dione hydrochloride] | – | – |
| > 8.00 | N#Cc1cc(F)ccc1C1CCN(CCCN2C(=O)NC3(CCc4cc(Cl)ccc43)C2=O)CC1 (racemic) [Compound 23, (+/ -)-1-{3-[4-(4-Fluoro-2-cyanophenyl)piperidin-1-yl]propyl}-5'-chloro-spiro[imidazolidine-4,1'indan]-2,5-dione hydrochloride] | – | – |
| – | O=C1Nc2ccc(Cl)cc2C2(CCN(CCCN3C(=O)NC4(CCc5cc(Cl)ccc54)C3=O)CC2)O1 (racemic) [Compound 29, (+/ -)-1-{3-{6-Chlorospiro[4H-3,1-benzoxazine-4,4'-piperidin]-2(1H)-on-1'-yl}propyl}-5'-chloro-spiro[imidazolidine-4,1'indan]-2,5-dione hydrochloride] | > 8.00 | – |
| – | Cc1ccc2c(c1)CCC21NC(=O)N(CCCN2CCC3(CCc4ccccc43)CC2)C1=O (racemic) [Compound 33, (+/ -)-1-{3-{Spiro[indano-1,4'-piperidin]-1-yl}propyl}-5'-methyl-spiro[imidazolidine-4,1'indan]-2,5-dione hydrochloride] | > 8.00 | – |
| > 8.00 | Cc1ccc2c(c1)CCC21NC(=O)N(CCCN2CCC(c3ccc(F)cc3C#N)CC2)C1=O (racemic) [Compound 36, (+/ -)-1-{3-[4-(4-Fluoro-2-cyanophenyl)piperidin-1-yl]propyl}3-5'-methyl-spiro[imidazolidine-4,1'indan]-2,5-dione hydrochloride] | – | – |
| > 8.00 | N#Cc1cc(F)ccc1C1CCN(CCCN2C(=O)NC3(CCSc4cc(F)ccc43)C2=O)CC1 (racemic) [Compound 45, (+/ -)-1'-{3-[4-(4-Fluoro-2-cyano-phenyl)piperidin-1-yl]propyl}-7-fluoro-2,3-dihydro-spiro[4H-1-benzothiopyran-4,4'-imidazolidine]-2',5'-dione hydrochloride] | – | – |
| – | Cl.N#CC1(c2ccccc2)CCN(CCCN2C(=O)NC3(CCCCc4ccc(F)cc43)C2=O)CC1 (racemic) [Compound 48, (+/ -)-1'-[3-(4-Cyano-4-phenylpiperidin-1-yl)propyl]-3-fluoro-6,7,8,9-tetrahydro-spiro[5H-benzocycloheptene-5,4'-imidazolidine]-2',5'-dione hydrochloride] | – | fold more selective in binding to alpha 1a receptors versus binding to the alpha 1b receptors [2]: at least 10 fold; fold more selective in binding to alpha 1a receptors versus binding to the alpha 1d receptors [3]: at least 10 fold |
| > 8.00 | N#Cc1cc(F)ccc1C1CCN(CCCN2C(=O)NC3(CCCOc4cc(F)ccc43)C2=O)CC1 (racemic) [Compound 50, (+/ -)-1-{3-[4-(4-fluoro-2-cyano-phenyl)piperidin-1-yl]propyl}-8-fluoro-2,3,4,5-tetrahydro-spiro[1-benzoxepin-5(2H),4'-imidazolidine]-2',5'-dione hydrochloride] | – | – |
| – | CC(CCN1C(=O)NC2(CCc3cc(Cl)ccc32)C1=O)N1CCC(c2ccc(F)cc2)CC1.Cl (racemic) [Compound 51, (+/ -)-1-{3-[4-(4-fluorophenyl)piperidin-1-yl]butyl}-5'-chloro-spiro[imidazolidine-4,1'indan]-2,5-dione hydrochloride] | – | fold more selective in binding to alpha 1a receptors versus binding to the alpha 1b receptors [2]: at least 10 fold; fold more selective in binding to alpha 1a receptors versus binding to the alpha 1d receptors [3]: at least 10 fold |
| – | Cc1ccc2c(c1)CCC21NC(=O)N(CCCN2CCC3(CCc4ccccc43)CC2)C1=O (single isomer, unassigned; (+)) [Compound 35, (+)-1-{3-{spiro[indano-1,4'-piperidin]-1-yl}propyl}-5'-methyl-spiro[imidazolidine-4,1'indan]-2,5-dione] | > 8.00 | – |
| > 8.00 | O=C1NC2(CCOc3cc(F)ccc32)C(=O)N1CCCN1CCC(c2ccc(F)cc2)CC1 (single isomer, unassigned; (+)) [Compound 42, (+)-1'-{3-[4-(4-fluorophenyl)piperidin-1-yl]propyl}-7-fluoro-2,3-dihydro-spiro[4H-1-benzopyran-4,4'-imidazolidine]-2',5'-dione] | – | – |
| – | N#CC1(c2ccccc2)CCN(CCCN2C(=O)NC3(CCc4cc(F)ccc43)C2=O)CC1 (stereo not shown) [Compound 10] | > 8.00 | – |
| – | O=C1NC2(CCc3cc(F)ccc32)C(=O)N1CCCN1CCC2(CCc3ccccc32)CC1 (stereo not shown) [Compound 14] | > 7.00 | – |
| > 8.00 | N#Cc1cc(F)ccc1C1CCN(CCCN2C(=O)NC3(CCc4cc(F)c(F)cc43)C2=O)CC1 (stereo not shown) [Compound 19] | – | – |
| > 8.00 | N#Cc1cc(F)ccc1C1CCN(CCCN2C(=O)NC3(CCc4cc(Cl)ccc43)C2=O)CC1 (stereo not shown) [Compound 24] | – | – |
| – | O=C1NC2(CCc3cc(Cl)ccc32)C(=O)N1CCCN1CCC2(CCc3ccccc32)CC1 (stereo not shown) [Compound 28] | > 8.00 | – |
